Reference: US7928238B2, “1,2,3,4-tetrahydro-quinoline derivatives as CETP inhibitors” (Janssen Pharmaceutica NV, priority 2006, dated 2011)
pIC50: −log10 of the molar value. Where “and” joins values, the source holds several entries; their conditions need not be identical. Equal entries are not always repeated. Where two headings read alike, the source gives them in different places.

Biological target: T1, CETP (Homo sapiens, UniProt P11597)
T1 construct: from tissue; host or cells: human plasma from normal volunteers
T1 sequence (P11597 18-493): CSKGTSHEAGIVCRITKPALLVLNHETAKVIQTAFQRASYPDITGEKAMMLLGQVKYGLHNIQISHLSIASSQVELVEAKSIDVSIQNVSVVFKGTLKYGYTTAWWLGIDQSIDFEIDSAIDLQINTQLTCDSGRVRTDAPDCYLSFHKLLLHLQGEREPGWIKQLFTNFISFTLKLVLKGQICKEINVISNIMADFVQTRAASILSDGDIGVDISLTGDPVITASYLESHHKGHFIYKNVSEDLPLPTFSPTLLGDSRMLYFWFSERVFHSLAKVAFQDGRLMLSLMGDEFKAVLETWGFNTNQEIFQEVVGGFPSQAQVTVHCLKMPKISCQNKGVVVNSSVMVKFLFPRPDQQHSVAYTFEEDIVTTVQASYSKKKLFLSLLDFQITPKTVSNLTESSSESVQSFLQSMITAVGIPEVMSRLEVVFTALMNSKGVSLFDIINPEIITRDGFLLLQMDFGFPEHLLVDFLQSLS
Assay: CETP in vitro assay (Amersham kit TRKQ7005; modified protocol in human plasma, [3H]CE-HDL transfer)
Format: biochemical
Conditions: for pIC50: from plots of % control versus compound concentration
Method: The CETP inhibitory activity of the compounds was determined using a commercially available kit from Amersham Biosciences (Catalog #TRKQ7005).
Briefly, 80 μl of human plasma (obtained from normal volunteers), approximately 25 μg/ml (20 μl) of [^3H]CE-HDL (Amersham Biosciences from kit TRKQ7005) and 1 μl of compound dissolved in DMSO was incubated for at least 4 hrs at 37° C. and non-specific transfer was determined by incubating a corresponding plate at 4° C. (blank). After the incubation period, 10 μl of a solution of 1% Dextralip 50/0.5M MgCl2, pH 7.4 was added, vortexed and incubated at room temperature for 10 min. The plate was then centrifuged for 30 min at 10° C. at 300 rpm in a Sorvall RT6000B centrifuge. Fifty microliters of the supernatant was transferred to a Picoplate (Packard) containing 100 μl of Microscint 40 (Perkin Elmer) and mixed for 30 min using a plate mixer. The radioactivity was counted using a TopCount (Perkin Elmer) and the % control was determined in the samples using the following formula: % transfer relative to vehicle controls (% control)=[cpm blank−cpm test]/cpm blank/cpm control]×100. IC50s were calculated from plots of the % control versus compound concentration.

[1] = 1 μM compound, read-out: % Inhibition @ 1 μM

inhibition at 1 µM [1] | pIC50 | % Inhibition @ 1 μM (1 μM compound) | Structure (SMILES) | inhibition at 1 µM (read-out: % Inhibition @ 1 μM, 1 μM compound)
100% | 8.15 and 7.60 and 7.52 | – | OC(CN1c2cccc(-c3cccc(OC(F)(F)F)c3)c2CCC1c1cccc(OC(F)(F)C(F)F)c1)C(F)(F)F (single isomer, unassigned) [Compound 1, 1,1,1-Trifluoro-3-[2-[3-(1,1,2,2-tetrafluoro-ethoxy)-phenyl]-5-(3-trifluoromethoxy-phenyl)-3,4-dihydro-2H-quinolin-1-yl]-propan-2-ol] | –
– | 6.35 and 6.82 | 86% | OC(CN1c2cccc(-c3cccc(OC(F)(F)F)c3)c2CCC1c1cccc(OC(F)(F)C(F)F)c1)C(F)(F)F (single isomer, unassigned) [Compound 2, 1,1,1-Trifluoro-3-[2-[3-(1,1,2,2-tetrafluoro-ethoxy)-phenyl]-5-(3-trifluoromethoxy-phenyl)-3,4-dihydro-2H-quinolin-1-yl]-propan-2-ol] | –
– | 6.30 | 85% | OC(CN1c2cccc(-c3ccc(C(F)(F)F)cc3)c2CCC1c1cccc(OC(F)(F)C(F)F)c1)C(F)(F)F (centres unmarked) [Compound 3, 1,1,1-Trifluoro-3-[2-[3-(1,1,2,2-tetrafluoro-ethoxy)-phenyl]-5-(4-trifluoromethyl-phenyl)-3,4-dihydro-2H-quinolin-1-yl]-propan-2-ol] | –
– | – | 1% | OC(CN1c2cccc(-c3ccc(C(F)(F)F)cc3)c2CCC1c1cccc(OC(F)(F)C(F)F)c1)C(F)(F)F (centres unmarked) [Compound 4, 1,1,1-Trifluoro-3-[2-[3-(1,1,2,2-tetrafluoro-ethoxy)-phenyl]-5-(4-trifluoromethyl-phenyl)-3,4-dihydro-2H-quinolin-1-yl]-propan-2-ol] | –
– | 6.59 and 6.42 | 96% | Cc1cc(-c2cccc3c2CCC(c2cccc(OC(F)(F)C(F)F)c2)N3CC(O)C(F)(F)F)ccc1Cl (centres unmarked) [Compound 5, 3-{5-(4-Chloro-3-methyl-phenyl)-2-[3-(1,1,2,2-tetrafluoro-ethoxy)-phenyl]-3,4-dihydro-2H-quinolin-1-yl}-1,1,1-trifluoro-propan-2-ol] | –
– | – | 42% | Cc1cc(-c2cccc3c2CCC(c2cccc(OC(F)(F)C(F)F)c2)N3CC(O)C(F)(F)F)ccc1Cl (centres unmarked) [Compound 6, 3-{5-(4-Chloro-3-methyl-phenyl)-2-[3-(1,1,2,2-tetrafluoro-ethoxy)-phenyl]-3,4-dihydro-2H-quinolin-1-yl}-1,1,1-trifluoro-propan-2-ol] | –
– | – | 61, 61% | OC(CN1c2cccc(-c3ccc(OC(F)(F)F)cc3)c2CCC1c1cccc(OC(F)(F)C(F)F)c1)C(F)(F)F (centres unmarked) [Compound 7, 1,1,1-Trifluoro-3-[2-[3-(1,1,2,2-tetrafluoro-ethoxy)-phenyl]-5-(4-trifluoromethoxy-phenyl)-3,4-dihydro-2H-quinolin-1-yl]-propan-2-ol] | –
– | – | 29% and 36% | OC(CN1c2cccc(-c3ccc(OC(F)(F)F)cc3)c2CCC1c1cccc(OC(F)(F)C(F)F)c1)C(F)(F)F (centres unmarked) [Compound 8, 1,1,1-Trifluoro-3-[2-[3-(1,1,2,2-tetrafluoro-ethoxy)-phenyl]-5-(4-trifluoromethoxy-phenyl)-3,4-dihydro-2H-quinolin-1-yl]-propan-2-ol] | –
– | 6.75 and 6.53 | 82% and 85% | N#Cc1cccc(-c2cccc3c2CCC(c2cccc(OC(F)(F)C(F)F)c2)N3CC(O)C(F)(F)F)c1 (centres unmarked) [Compound 9, 3-[2-[3-(1,1,2,2-Tetrafluoro-ethoxy)-phenyl]-1-(3,3,3-trifluoro-2-hydroxy-propyl)-1,2,3,4-tetrahydro-quinolin-5-yl]-benzonitrile] | –
– | 7.15 and 7.02 and 6.73 | 101% and 99% and 79% | OC(CN1c2cccc(-c3cccc(F)c3)c2CCC1c1cccc(OC(F)(F)C(F)F)c1)C(F)(F)F (centres unmarked) [Compound 11, 1,1,1-Trifluoro-3-{5-(3-fluoro-phenyl)-2-[3-(1,1,2,2-tetrafluoro-ethoxy)-phenyl]-3,4-dihydro-2H-quinolin-1-yl}-propan-2-ol] | –
– | – | 41% and 64% | OC(CN1c2cccc(-c3cccc(F)c3)c2CCC1c1cccc(OC(F)(F)C(F)F)c1)C(F)(F)F (centres unmarked) [Compound 12, 1,1,1-Trifluoro-3-{5-(3-fluoro-phenyl)-2-[3-(1,1,2,2-tetrafluoro-ethoxy)-phenyl]-3,4-dihydro-2H-quinolin-1-yl}-propan-2-ol] | –
– | 7.02 | 98% and 87% | OC(CN1c2cccc(-c3cccc(C(F)(F)F)c3)c2CCC1c1cccc(OC(F)(F)C(F)F)c1)C(F)(F)F (centres unmarked) [Compound 13] | –
– | – | 37% | OC(CN1c2cccc(-c3cccc(C(F)(F)F)c3)c2CCC1c1cccc(OC(F)(F)C(F)F)c1)C(F)(F)F (centres unmarked) [Compound 14] | –
54% | 7.08 and 6.69 | 43% and 55% | OC(CN1c2cccc(-c3cccc(OC(F)(F)F)c3)c2CCC1c1cccc(C(F)(F)F)c1)C(F)(F)F (centres unmarked) [Compound 17, 1,1,1-Trifluoro-3-[5-(3-trifluoromethoxy-phenyl)-2-(3-trifluoromethyl-phenyl)-3,4-dihydro-2H-quinolin-1-yl]-propan-2-ol] | –
– | 5.54 | 40% and 35% | OC(CN1c2cccc(-c3cccc(OC(F)(F)F)c3)c2CCC1c1cccc(C(F)(F)F)c1)C(F)(F)F (centres unmarked) [Compound 18, 1,1,1-Trifluoro-3-[5-(3-trifluoromethoxy-phenyl)-2-(3-trifluoromethyl-phenyl)-3,4-dihydro-2H-quinolin-1-yl]-propan-2-ol] | –
– | – | 21% | OC(CN1c2cccc(-c3cccc(OC(F)(F)F)c3)c2CCC1c1ccccc1)C(F)(F)F (centres unmarked) [Compound 19, 1,1,1-Trifluoro-3-[2-phenyl-5-(3-trifluoromethoxy-phenyl)-3,4-dihydro-2H-quinolin-1-yl]-propan-2-ol] | –
– | – | 6% | OC(CN1c2cccc(-c3cccc(OC(F)(F)F)c3)c2CCC1c1ccccc1)C(F)(F)F (centres unmarked) [Compound 20, 1,1,1-Trifluoro-3-[2-phenyl-5-(3-trifluoromethoxy-phenyl)-3,4-dihydro-2H-quinolin-1-yl]-propan-2-ol] | –
– | – | 5% | OC(CN1c2cccc(-c3cccc(OC(F)(F)F)c3)c2CCC1c1ccc(OC(F)(F)C(F)F)cc1)C(F)(F)F (centres unmarked) [Compound 21, 1,1,1-Trifluoro-3-[2-[4-(1,1,2,2-tetrafluoro-ethoxy)-phenyl]-5-(3-trifluoromethoxy-phenyl)-3,4-dihydro-2H-quinolin-1-yl]-propan-2-ol] | –
– | – | 14% | OC(CN1c2cccc(-c3cccc(OC(F)(F)F)c3)c2CCC1c1ccc(OC(F)(F)C(F)F)cc1)C(F)(F)F (centres unmarked) [Compound 22, 1,1,1-Trifluoro-3-[2-[4-(1,1,2,2-tetrafluoro-ethoxy)-phenyl]-5-(3-trifluoromethoxy-phenyl)-3,4-dihydro-2H-quinolin-1-yl]-propan-2-ol] | –
– | – | 33% | OC(CN1c2cccc(-c3cccc(OC(F)(F)F)c3)c2CCC1c1cccc(F)c1)C(F)(F)F (centres unmarked) [Compound 23, 1,1,1-Trifluoro-3-[2-(3-fluoro-phenyl)-5-(3-trifluoromethoxy-phenyl)-3,4-dihydro-2H-quinolin-1-yl]-propan-2-ol] | –
– | – | 4% | OC(CN1c2cccc(-c3cccc(OC(F)(F)F)c3)c2CCC1c1cccc(F)c1)C(F)(F)F (centres unmarked) [Compound 24, 1,1,1-Trifluoro-3-[2-(3-fluoro-phenyl)-5-(3-trifluoromethoxy-phenyl)-3,4-dihydro-2H-quinolin-1-yl]-propan-2-ol] | –
– | 6.24 | 59% and 74% | COc1cccc(C2CCc3c(-c4cccc(OC(F)(F)F)c4)cccc3N2CC(O)C(F)(F)F)c1 (centres unmarked) [Compound 25, 1,1,1-Trifluoro-3-[2-(3-methoxy-phenyl)-5-(3-trifluoromethoxy-phenyl)-3,4-dihydro-2H-quinolin-1-yl]-propan-2-ol] | –
– | – | 4% | COc1cccc(C2CCc3c(-c4cccc(OC(F)(F)F)c4)cccc3N2CC(O)C(F)(F)F)c1 (centres unmarked) [Compound 26, 1,1,1-Trifluoro-3-[2-(3-methoxy-phenyl)-5-(3-trifluoromethoxy-phenyl)-3,4-dihydro-2H-quinolin-1-yl]-propan-2-ol] | –

Structure (SMILES) | inhibition at 1 µM [1] | pIC50 | % Inhibition @ 1 μM (1 μM compound) | inhibition at 1 µM (read-out: % Inhibition @ 1 μM, 1 μM compound)
OC(CN1c2cccc(-c3cccc(Cl)c3)c2CCC1c1cccc(OC(F)(F)C(F)F)c1)C(F)(F)F (centres unmarked) [Compound 15, 3-{5-(3-Chloro-phenyl)-2-[3-(1,1,2,2-tetrafluoro-ethoxy)-phenyl]-3,4-dihydro-2H-quinolin-1-yl}-1,1,1-trifluoro-propan-2-ol] | – | 7.17 and 7.23 | 66% | 68%
OC(CN1c2cccc(-c3cccc(Cl)c3)c2CCC1c1cccc(OC(F)(F)C(F)F)c1)C(F)(F)F (centres unmarked) [Compound 16, 3-{5-(3-Chloro-phenyl)-2-[3-(1,1,2,2-tetrafluoro-ethoxy)-phenyl]-3,4-dihydro-2H-quinolin-1-yl}-1,1,1-trifluoro-propan-2-ol] | 55% | – | – | –
